In US20050009925A1, “Use of norepinephrine reuptake inhibitors for the treatment of cognitive failure” (priority 2001, published 2005):

Test system: c-fos
Assay: c-fos activation (Fos-like immunoreactivity) in rat brain after atomoxetine
Format: in vivo
Conditions: rats, 3 mg/kg i.p., two hours after administration
Protocol: The immediate-early gene, c-fos, and its protein products have been increasingly utilized as markers for neuronal activation (Dragunow and Faull, J. Neurosci. Methods, 29, 261-265 (1989); Morgan and Curran, Prog. In Brain Res., 86, 287-294 (1990); Robertson, et al., J. Pharmacol. Exp. Ther., 271, 1058-1066 (1994)). C-fos activation is measured as illustrated below for atomoxetine.
Two hours after administration of atomoxetine (3 mg/kg, i.p.), the rats were deeply anesthetized with sodium pentobarbital (60 mg/kg, i.p.) and transcardially perfused with 100 ml of phosphate buffered saline (PBS) followed by 100 ml of 4% paraformaldehyde in PBS. The brain was rapidly removed, postfixed for 90 min in 4% paraformaldehyde and then was transferred to 30% sucrose at […] until saturated. After quick freezing, serial 30 μm sections were cut and placed in PBS until processed for immunohistochemistry. In brief, sections were incubated in PBS containing blocking serum and 0.5% Triton-X 100 for 1 hour. Sections were then incubated with anti-Fos antibody (Santa Cruz Biotechnology, Inc.) at 4° C. overnight. Visualization of the Fos-like immunoreactivity was performed with a Vectastain ABC Elite Kit (Vector Labs, Burlingame, Calif.) using the standard protocol supplied with the kit. Nickel-intensified diaminobenzidine (DAB) was used as the chromagen to yield a gray-black precipitation product. Following visualization of the Fos immunoreactivity, the sections were mounted on gelatin-coated glass slides and allowed to dry. The sections were then dehydrated and cover slipped. Fos expressing cells were quantitated using the MCID M2 imaging system (Imaging Research, St. Catherines, Ontario).

## CNCC[C@@H](Oc1ccccc1C)c1ccccc1 [Atomoxetine, (R)-(−)-N-methyl-3-(2-methylphenoxy)-3-phenylpropylamine]
Nucleus accumbens
  Fos positive cells, Nucleus Accumbens: 152 ± 44 Fos positive cells/mm^2
Prefrontal cortex
  Fos positive cells, Prefrontal Cortex: 296 ± 26 Fos positive cells/mm^2
striatum
  Fos positive cells, Striatum: 102 ± 35 Fos positive cells/mm^2
Summary of the table
  expression of c-fos (regional pattern, in words): increased the expression of c-fos only in the cortical areas
